Several values for one entry are separate records, joined by “and”; a condition that tells them apart may be missing. Equal entries are not always repeated. Activity calls are given as the source filed them.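 Rule for the calls: active = compounds whose lipid-stain IC50 is at most a set limit, with nuclear-stain IC50 a set multiple higher; inactive = the rest.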
Tested on: H9c2 rat cardiomyoblasts, Nile Red TAG fluorescence, overnight
Experiment: inhibitors of triacylglycerol buildup in H9c2 cells, dose response, cell-based, H9c2 rat cardiomyoblasts, Nile Red fluorescence, primary readout (AID 743161)

Compound | IC50
COCCn1cnc2cccc(C(=O)Nc3cccc(-c4nc5ccccc5[nH]4)c3)c2c1=O | > 50 µM (inactive)
COCCN1Cc2cccc(C(=O)Nc3nc4ccccc4n3C)c2C1=O | > 50 µM (inactive)
COc1cc(NC(=O)c2cc([N+](=O)[O-])ccc2NC(=O)CN2CCN(c3ccccn3)CC2)cc(OC)c1 | 8.11 µM
CCCCN1Cc2cccc(C(=O)Nc3cccc(-c4nc5ccccc5[nH]4)c3)c2C1=O | 0.982 µM
CCCN1Cc2cccc(C(=O)Nc3ccc(-c4nc5ccccc5[nH]4)cc3)c2C1=O | > 50 µM (inactive)
COc1cc2c(cc1OC)C(C)N(C(=O)c1cc3c(C)cc(C)cc3[nH]1)CC2 (centres undefined) | 18.2 µM (inactive)
COCCN1Cc2cccc(C(=O)Nc3cccc(C(C)=O)c3)c2C1=O | 17.5 µM (inactive)
O=C1COc2ccc(C(=O)CSc3nc4ccccc4c(=O)n3-c3ccc(Cl)c(Cl)c3)cc2N1 | 14.9 µM
O=C(Nc1cccc2ncccc12)c1ccc(Cl)cc1 | > 50 µM (inactive)
CCOc1ccc(NC(=O)CN(C)C(=O)c2cc(-c3ccc(OC)cc3)nc3ccccc23)cc1OCC | 15.3 µM (inactive)
CC(=O)Nc1cccc(-c2nc3ccccc3[nH]2)c1 | > 50 µM (inactive)
CCC(C)(C)NC(=O)C(c1ccc(C)cc1)N(Cc1ccco1)C(=O)CCC(=O)Nc1nccs1 (centres undefined) | 8.41 µM
CCOc1ccccc1NC(=O)c1cccc(NC(=O)c2ccco2)c1 | 12 µM
COCCN1Cc2cccc(C(=O)Nc3cccc(C(=O)Nc4ccccc4OC)c3)c2C1=O | 5.75 µM
COc1ccc(-c2csc(NC(=O)c3ccc(OCC(=O)N4CCOCC4)c(OC)c3)n2)cc1 | 0.662 µM
Cc1ccc(-c2nc(NC(=O)c3cc(C(C)(C)C)nn3C)sc2C)cc1Cl | 4.26 µM
COc1cccc(-c2cc(C(=O)Nc3ccc(N(C)C(C)=O)cc3)c3cc(Br)ccc3n2)c1 | 10.4 µM
O=[N+]([O-])c1ccc(Nc2nc(NC3CCCCC3)nc(N3CCCC3)n2)cc1 | 14 µM
O=C(Nc1cccc(-c2nc3ccccc3[nH]2)c1)c1cccc2c1C(=O)N(CC1CC1)C2 | 1.53 µM
Cc1ccccc1NC(=O)CSc1nc2ccc(Nc3nc(N4CCOCC4)nc(N4CCOCC4)n3)cc2s1 | 6.86 µM
CCCCSc1nc2ccc(Nc3nc(N4CCOCC4)nc(N4CCOCC4)n3)cc2s1 | 7.11 µM
CCOC(=O)c1cccc(NC(=O)c2cccc3c2C(=O)N(CCOC)C3)c1 | > 50 µM (inactive)
CC(C)CC(=O)Nc1cccc(-c2nc3ccccc3[nH]2)c1 | > 50 µM (inactive)

Compound | IC50
COCCN1Cc2cccc(C(=O)Nc3cccc(-c4nc5ccc(C)cc5[nH]4)c3)c2C1=O | 1.31 µM
COCCCN1Cc2cccc(C(=O)Nc3cccc(-c4nc5ccccc5[nH]4)c3)c2C1=O | 2.29 µM
COc1ccccc1CCN1Cc2cccc(C(=O)Nc3cccc(-c4nc5ccccc5[nH]4)c3)c2C1=O | 1.07 µM
COCCN1Cc2cccc(C(=O)Nc3ccc(C)cc3)c2C1=O | 19.3 µM (inactive)
O=C(Nc1cccc(-c2nc3ccccc3[nH]2)c1)c1cccc2c1C(=O)N(CCN1CCOCC1)C2 | 3.36 µM
COCCN1Cc2cccc(C(=O)Nc3cccnc3)c2C1=O | > 50 µM (inactive)
CCOCCN1Cc2cccc(C(=O)Nc3cccc(-c4nc5ccccc5[nH]4)c3)c2C1=O | 1.18 µM
COCCN1Cc2cccc(C(=O)Nc3cccc(-c4nc5ccc(F)cc5[nH]4)c3)c2C1=O | 1.27 µM
O=C(CSc1nc2ccc(Nc3nc(N4CCOCC4)nc(N4CCOCC4)n3)cc2s1)NCc1ccco1 | 6.77 µM
CCN(CC)S(=O)(=O)c1ccc(N2CCOCC2)c(NC(=O)c2[nH]c(C)c(C(C)=O)c2C)c1 | 11.3 µM
O=C(Nc1cccc(-c2nc3ccccc3[nH]2)c1)c1cccc2c1C(=O)N(CCOc1ccccc1)C2 | 1.01 µM
CCCN1Cc2cccc(C(=O)Nc3cccc(C(C)=O)c3)c2C1=O | > 50 µM (inactive)
CN(C)CCCn1c(SCC(=O)Nc2nc(-c3cccc(Br)c3)cs2)nc2ccccc2c1=O | 22.8 µM (inactive)
CCCC(=O)Nc1nc2ccc(NC(=O)c3ccccc3F)cc2s1 | 13.5 µM
O=C(Nc1cccc(-c2nc3ccccc3[nH]2)c1)c1ccccc1 | 32.8 µM (inactive)
Cc1ccc(-c2csc(NC(=O)CSc3nc4ccccc4c(=O)n3CCCN(C)C)n2)cc1 | 17.5 µM (inactive)
O=C(Nc1cccc(-c2nc3ccccc3[nH]2)c1)c1ccncc1 | > 50 µM (inactive)
COCCN1Cc2cccc(C(=O)Nc3ccc(CN4CCOCC4)cc3)c2C1=O | > 50 µM (inactive)
O=C(CCC(=O)N1CCOc2ccc(Cl)cc21)NCCCN1CCC(Cc2ccccc2)CC1 | 12.6 µM
Cc1ccc(Nc2nc(OC(C(F)(F)F)C(F)(F)F)nc(N3CCOCC3)n2)cc1 | 3.9 µM
CCCN1Cc2cccc(C(=O)Nc3ccc(C)cc3)c2C1=O | > 50 µM (inactive)
CCC(C)(C)NC(=O)C(c1ccc(OC)cc1)N(Cc1cccs1)C(=O)CCC(=O)Nc1cc(C)on1 (centres undefined) | 5.88 µM
COc1ccc(CCN2Cc3cccc(C(=O)Nc4cccc(-c5nc6ccccc6[nH]5)c4)c3C2=O)cc1OC | 1.1 µM

Compound | IC50
COCCN1Cc2cccc(C(=O)Nc3cccc(-c4nc5ccccc5[nH]4)c3)c2C1=O | 1.19 µM and 1.25 µM and 1.68 µM
COCCN1Cc2cccc(C(=O)Nc3cccc(-c4nc5ccc(C(F)(F)F)cc5[nH]4)c3)c2C1=O | 0.832 µM
COCCN1Cc2cccc(C(=O)Nc3cccc(-c4nc5ccc(Cl)cc5[nH]4)c3)c2C1=O | 1.42 µM
COCCN1Cc2cccc(C(=O)Nc3cccc(Cl)c3Cl)c2C1=O | > 50 µM (inactive)
COCCN1Cc2cccc(C(=O)Nc3ccc(S(=O)(=O)N4CCOCC4)cc3)c2C1=O | > 50 µM (inactive)
Cc1cc(C)c2nc(-c3ccncc3)cc(C(=O)N3CCN(Cc4ccccc4Cl)CC3)c2c1 | 5.05 µM
COCCN1Cc2cccc(C(=O)Nc3nc4ccccc4[nH]3)c2C1=O | > 50 µM (inactive)
COCCN1Cc2cccc(C(=O)Nc3cccc(C(=O)Nc4ccccc4)c3)c2C1=O | 2.9 µM
CCOC(=O)c1cc(-c2ccccc2)sc1NC(=O)C(C)N1C(=O)NC(C)(c2ccc(Cl)cc2)C1=O (centres undefined) | 8.38 µM
Cc1ccccc1NC(=O)CSc1nc(Nc2ccccc2)nc(N2CCOCC2)n1 | 15.3 µM (inactive)
COCCN1Cc2cccc(C(=O)Nc3ccc(S(=O)(=O)N4CCCCC4)cc3)c2C1=O | > 50 µM (inactive)
CCN(CC)S(=O)(=O)c1ccc(NC(=O)c2cccc3c2C(=O)N(CCOC)C3)cc1 | > 50 µM (inactive)
Cc1ccccc1OCCNc1cc(N2CC(C)NC(C)C2)ccc1[N+](=O)[O-] (centres undefined) | 11.3 µM
Cc1cccc2c(C(=O)N3CCN(c4ccccc4)CC3)cc(-c3ccncc3)nc12 | 4.25 µM
O=C(Nc1cccc(-c2nc3ccccc3[nH]2)c1)C1CCCC1 | 44.3 µM (inactive)
O=C(Nc1cccc(-c2nc3ccccc3[nH]2)c1)c1cccc2c1C(=O)N(CCc1ccccc1)C2 | 8.04 µM
COCCN1Cc2cccc(C(=O)Nc3cccc(Cl)c3)c2C1=O | > 50 µM (inactive)
COCCN1Cc2cccc(C(=O)Nc3ccc(-c4nc5ccccc5[nH]4)cc3)c2C1=O | 0.0525 µM
CCOc1ccc(CCNC(=O)CN2CCN(Cc3ccccc3C)C2=O)cc1OCC | 10.8 µM
CCCC(=O)Nc1nc2ccc(NC(=O)c3c(F)c(F)c(OC)c(F)c3F)cc2s1 | 8.2 µM
CCn1c(SCC(=O)Nc2nc(-c3ccc(C)cc3)cs2)nnc1-c1ccccc1O | 7.87 µM
O=C(CSc1nc2ccc(Nc3nc(N4CCOCC4)nc(N4CCOCC4)n3)cc2s1)Nc1ccccc1Cl | 7.85 µM
CSCCCN1Cc2cccc(C(=O)Nc3cccc(-c4nc5ccccc5[nH]4)c3)c2C1=O | 0.661 µM

— PubChem BioAssay AID743161 (Sanford-Burnham Center for Chemical Genomics, 2013)
